# Data: patent US4299822A, “N-Trifluoroacetyladriamycin-14-O-hemiglutarate and -hemiadipate and therapeutic compositions containing same” (Sidney Farber Cancer Institute, Inc., priority 1980, dated 1981)
# Columns and labels:
# CCRF-CEM cells = assay: growth inhibition of CCRF-CEM cell line in culture; format: cell-based; conditions: Homo sapiens; CCRF-CEM cells, in vitro; read-out: ID50 (dose required to inhibit growth of the cultures by 50% relative to control)
# Text: The in vitro assays measure the growth inhibiting activity of the materials against the CCRF-CEM cell line in culture. […] The in vivo evaluations were made by preparing a 0.2 to 0.7% by weight solution of the active agent in a formulation consisting of 10% by volume of each polyethoxylated castor oil and ethanol in saline and injecting the dosage intraperitoneally. The evaluations were made of the antitumor activity against the murine P388 and murine L1210 leukemias in BDF1 male mice according to standard National Cancer Institute protocols as set forth by Geran et al., Cancer Chemotherap. Rep., Part 3, Volume 3, pages 1 et seq.
# murine P388 leukemia = assay: in vivo antitumor activity against murine P388 leukemia, ip qd 1-4; design: species or system mouse (BDF1 male mice); conditions: 10% Emulphor EL-620, 10% ethanol, 80% saline
# Procedure: (§1) The toxicity and therapeutic effectiveness of the new compounds and active agents of the present invention are shown by in vitro assays and by in vivo evaluations in mice. The in vitro assays measure the growth inhibiting activity of the materials against the CCRF-CEM cell line in culture. The cell line was derived from the peripheral blood of a child with lymphoblastic leukemia as described by Foley et al., Cancer, Volume 18, page 522 et seq. (1965), and the assays were carried out by the procedure of Foley and Lazarus, Biochem. Pharmacol., Volume 16, pages 659 et seq. (1967), the results being reported in terms of the dose in micromoles per liter required to inhibit growth of the cultures by 50% relative to control cultures to which no drug had been added (ID50). The in vivo evaluations were made by preparing a 0.2 to 0.7% by weight solution of the active agent in a formulation consisting of 10% by volume of each polyethoxylated castor oil and ethanol in saline and injecting the dosage intraperitoneally. The evaluations were made of the antitumor activity against the murine P388 and murine L1210 leukemias in BDF1 male mice according to standard National Cancer Institute protocols as set forth by Geran et al., Cancer Chemotherap. Rep., Part 3, Volume 3, pages 1 et seq. (1972) , except that a qd 1-4 schedule was used in place of qd 1-9 in order to conserve materials.
# (§2) Optimal dosage was determined by testing doses which were at several multiples of 10 milligrams/kilogram of body weight. Some effectiveness can be observed at dosages ranging from 30 to 70 milligrams/kilogram of body weight, depending upon the particular compound employed.
# The following table summarizes the in vivo antitumor activity of the same compounds as those in Table I, evaluated against murine P388 leukemia as described above. All compounds were administered intraperitoneally, adriamycin in clinical formulation (1 part adriamycin plus 5 parts lactose, in 0.9% saline), the other compounds in 10% Emulphor EL-620, 10% ethanol, 80% isotonic saline.
# murine L1210 leukemia = assay: in vivo antitumor activity against L1210 leukemia, ip days 1-4; design: species or system mouse (BDF1 male mice); conditions: 10% Emulphor EL-620, 10% ethanol, 80% isotonic saline
# Procedure: as §1, §2
# All compounds were administered intraperitoneally; in tests (1) and (2), the compounds were in 10% Emulphor EL-620, 10% ethanol, and 80% isotonic saline. In test (3) the compound was in aqueous buffer containing monobasic potassium phosphate and sodium hydroxide (0.05 M), pH 7.40: […]
# [1] = pH 7.4
# [2] = cited from earlier work
# [3] = cited from earlier work; remark: listed apart in the source
# [4] = animals and human clinical tests
structure (smiles),measurement,setting,value
CCCCC(=O)OCC(=O)C1(O)Cc2c(O)c3c(c(O)c2C(OC2CC(NC(=O)C(F)(F)F)C(O)C(C)O2)C1)C(=O)c1c(OC)cccc1C3=O (stereo not shown) [N-Trifluoroacetyladriamycin-14-valerate],IC50,CCRF-CEM cells,240 nM
same,% ILS (percent increase in life span relative to untreated controls),murine P388 leukemia; each dose 20.0 mg/kg ip,281%
same,No. alive on d 30,murine P388 leukemia; each dose 20.0 mg/kg ip,5/7
same,No. alive on d 60,murine P388 leukemia; each dose 20.0 mg/kg ip,3/7
same,"Survival, Median day of death (range)",murine P388 leukemia; each dose 20.0 mg/kg ip,42.0 (21-42) day
same,No. alive on d 30,murine P388 leukemia; each dose 30.0 mg/kg ip,4/7
same,No. alive on d 60,murine P388 leukemia; each dose 30.0 mg/kg ip,4/7
same,"Survival, day of death (range only, no median)",murine P388 leukemia; each dose 30.0 mg/kg ip,21 to 26 days
same,No. alive on d 30,murine P388 leukemia; each dose 40.0 mg/kg ip,6/7
same,No. alive on d 60,murine P388 leukemia; each dose 40.0 mg/kg ip,6/7
same,"Survival, day of death (range only, no median)",murine P388 leukemia; each dose 40.0 mg/kg ip,"30,71 day"
same,% ILS (percent increase in life span relative to untreated controls),murine P388 leukemia; each dose 50.0 mg/kg ip,763%
same,No. alive on d 30,murine P388 leukemia; each dose 50.0 mg/kg ip,5/7
same,No. alive on d 60,murine P388 leukemia; each dose 50.0 mg/kg ip,5/7
same,"Survival, Median day of death (range)",murine P388 leukemia; each dose 50.0 mg/kg ip,95.0 (24-95) day
same,% ILS (percent increase in life span relative to untreated controls),murine P388 leukemia; each dose 60.0 mg/kg ip,718%
same,No. alive on d 30,murine P388 leukemia; each dose 60.0 mg/kg ip,5/7
same,No. alive on d 60,murine P388 leukemia; each dose 60.0 mg/kg ip,5/7
same,"Survival, Median day of death (range)",murine P388 leukemia; each dose 60.0 mg/kg ip,90.0 (9-90) day
same,"% ILS (percent median increase in life span relative to untreated controls, calculated as of day 50)",murine L1210 leukemia; 50.0 mg/kg/d × 4 ip,> 456%
same,No. alive on d 50,murine L1210 leukemia; 50.0 mg/kg/d × 4 ip,5/7
same,"% ILS (percent median increase in life span relative to untreated controls, calculated as of day 50)",murine L1210 leukemia; 60.0 mg/kg/d × 4 ip,> 456%
same,No. alive on d 50,murine L1210 leukemia; 60.0 mg/kg/d × 4 ip,6/7
same,solubility in water (in words),[1],a few micrograms
same,water solubility,[2],essentially water-insoluble
same,cardiotoxicity relative to parent drug,[3]; [4],significantly less cardiotoxic than the parent drug
same,toxicity in general relative to parent drug,[3]; [4],less toxic in general
same,therapeutic effect relative to adriamycin and daunomycin,"[3]; human, in vivo",therapeutically superior to adriamycin and to daunomycin
